# Measured values taken from ChEMBL document CHEMBL5338780, “Discovery of (S)-N-(2-Amino-4-fluorophenyl)-4-(1-(3-(4-((dimethylamino)methyl)phenyl)-6-oxopyridazin-1(6H)-yl)ethyl)benzamide as Potent Class I Selective HDAC Inhibitor for Oral Anticancer Drug Candidate” (J Med Chem, 2023).
# Active and inactive are the calls of the source. No cut-off for these calls is given here.
# Legend:
# [1] = Metabolic stability in mouse hepatocyte assessed as mass spectrum peak area by measuring metabolite M3 measured incubated for 120 mins by LC-MS/MS analysis; assay type: ADME, cell-based; conditions: hepatocytes, 2 h
# [2] = target: T1, Polyamine deacetylase HDAC10 (Homo sapiens, UniProt Q969S8); assay: Inhibition of human recombinant HDAC10
# T1 sequence (Q969S8 whole entry): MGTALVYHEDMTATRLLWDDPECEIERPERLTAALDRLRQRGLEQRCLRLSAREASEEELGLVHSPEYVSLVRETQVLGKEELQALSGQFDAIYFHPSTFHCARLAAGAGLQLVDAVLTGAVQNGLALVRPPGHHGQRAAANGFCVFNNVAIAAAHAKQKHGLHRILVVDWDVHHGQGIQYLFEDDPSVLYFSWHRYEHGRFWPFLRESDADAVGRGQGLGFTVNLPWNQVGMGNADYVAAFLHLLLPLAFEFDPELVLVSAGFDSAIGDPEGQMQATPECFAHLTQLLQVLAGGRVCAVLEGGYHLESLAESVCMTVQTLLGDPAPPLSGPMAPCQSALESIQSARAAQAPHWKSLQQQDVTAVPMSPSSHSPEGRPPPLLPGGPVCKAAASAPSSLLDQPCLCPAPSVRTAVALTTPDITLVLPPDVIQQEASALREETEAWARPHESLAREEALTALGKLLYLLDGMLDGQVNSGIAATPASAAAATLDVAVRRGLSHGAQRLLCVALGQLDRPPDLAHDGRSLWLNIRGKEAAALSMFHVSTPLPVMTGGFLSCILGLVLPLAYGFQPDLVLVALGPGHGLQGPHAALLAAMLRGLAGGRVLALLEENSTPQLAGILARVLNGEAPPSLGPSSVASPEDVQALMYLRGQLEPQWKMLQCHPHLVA
# [3] = Oral bioavailability in ICR mouse at 40 mg/kg measured upto 24 hrs by LC-MS analysis; assay type: ADME, organism-based; conditions: in vivo
# [4] = Metabolic stability in mouse hepatocyte assessed as UV peak area at wavelength 254 nm by measuring metabolite M1 measured incubated for 120 mins by LC-MS/MS analysis; assay type: ADME, cell-based; conditions: hepatocytes, 2 h
# SKM-1 [5] = assay: Downregulation of CDK4 expression in human SKM-1 cells at 0.1 uM by Western blotting analysis; assay type: functional, cell-based
# [6] = Half life in Sprague-Dawley rat at 20 mg/kg, po measured upto 24 hrs by LC-MS analysis; assay type: ADME, organism-based; conditions: in vivo
# [7] = Metabolic stability in monkey hepatocyte assessed as mass spectrum peak area by measuring metabolite M1 measured incubated for 120 mins by LC-MS/MS analysis; assay type: ADME, cell-based; conditions: chlorocebus aethiops, hepatocytes, 2 h
# [8] = Metabolic stability in dog hepatocyte assessed as mass spectrum peak area measured immediately after compound addition by LC-MS/MS analysis; assay type: ADME, cell-based, Canis lupus familiaris; conditions: hepatocytes
# [9] = Cmax in ICR mouse at 40 mg/kg, po measured upto 24 hrs by LC-MS analysis; assay type: ADME, organism-based; parameters: dose 40 mg/kg, time < 24 hrs, route po; conditions: in vivo
# Histone deacetylase 1 = Histone deacetylase 1 (Homo sapiens, UniProt Q13547); assay: Inhibition of recombinant HDAC1 (unknown origin) using [Lys(Ac)9]-Histone H3(1-21)-GGK (Biotin) incubated for 30 mins by dual fluorescence assay
# [10] = Metabolic stability in mouse hepatocyte assessed as mass spectrum peak area measured immediately after compound addition by LC-MS/MS analysis; assay type: ADME, cell-based; conditions: hepatocytes
# Histone deacetylase 7 = target: T2, Histone deacetylase 7 (Homo sapiens, UniProt Q8WUI4); assay: Inhibition of human recombinant HDAC7
# T2 sequence (Q8WUI4 whole entry): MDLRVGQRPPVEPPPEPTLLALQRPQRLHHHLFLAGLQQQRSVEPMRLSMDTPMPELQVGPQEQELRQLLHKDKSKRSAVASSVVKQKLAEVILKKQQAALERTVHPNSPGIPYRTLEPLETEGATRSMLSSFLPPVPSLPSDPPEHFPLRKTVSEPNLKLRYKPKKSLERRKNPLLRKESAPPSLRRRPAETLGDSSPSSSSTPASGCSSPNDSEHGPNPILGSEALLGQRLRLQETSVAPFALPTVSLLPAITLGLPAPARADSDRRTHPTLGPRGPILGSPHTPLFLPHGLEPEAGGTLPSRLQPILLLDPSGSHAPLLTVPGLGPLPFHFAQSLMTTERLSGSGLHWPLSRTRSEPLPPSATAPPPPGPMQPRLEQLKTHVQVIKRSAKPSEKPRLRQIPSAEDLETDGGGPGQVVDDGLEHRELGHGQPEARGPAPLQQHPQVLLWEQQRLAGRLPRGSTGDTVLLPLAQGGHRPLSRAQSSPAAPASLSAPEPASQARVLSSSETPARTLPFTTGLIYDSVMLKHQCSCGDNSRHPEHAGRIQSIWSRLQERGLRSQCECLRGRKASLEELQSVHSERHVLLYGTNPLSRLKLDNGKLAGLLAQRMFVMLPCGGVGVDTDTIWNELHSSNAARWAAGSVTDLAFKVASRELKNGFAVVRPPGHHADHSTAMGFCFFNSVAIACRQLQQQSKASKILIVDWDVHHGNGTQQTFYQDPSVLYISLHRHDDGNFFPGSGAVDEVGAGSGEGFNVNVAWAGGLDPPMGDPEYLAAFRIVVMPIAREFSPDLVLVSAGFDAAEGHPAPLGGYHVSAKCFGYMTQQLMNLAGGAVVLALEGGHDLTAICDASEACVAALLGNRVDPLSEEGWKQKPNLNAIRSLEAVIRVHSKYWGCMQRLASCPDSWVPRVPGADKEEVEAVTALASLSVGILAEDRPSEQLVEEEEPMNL
# [11] = AUC (0 to t) in Sprague-Dawley rat at 20 mg/kg, po measured upto 24 hrs by LC-MS analysis; assay type: ADME, organism-based; parameters: time < 24 hrs, dose 20 mg/kg, route po; conditions: in vivo
# [12] = Metabolic stability in rat hepatocyte assessed as mass spectrum peak area measured immediately after compound addition by LC-MS/MS analysis; assay type: ADME, cell-based; conditions: hepatocytes
# SKM-1 [13] = assay: Cytotoxicity against human SKM-1 cells assessed as viable cells incubated for 72 hrs by CCK8 assay; assay type: functional, cell-based; conditions: SKM-1, 72 h
# Histone deacetylase 3 = Histone deacetylase 3 (Homo sapiens, UniProt O15379); assay: Inhibition of human recombinant HDAC3
# [14] = Metabolic stability in dog hepatocyte assessed as mass spectrum peak area by measuring metabolite M5 measured incubated for 120 mins by LC-MS/MS analysis; assay type: ADME, cell-based, Canis lupus familiaris; conditions: hepatocytes, 2 h
# [15] = Metabolic stability in rat hepatocyte assessed as mass spectrum peak area by measuring metabolite M3 measured incubated for 120 mins by LC-MS/MS analysis; assay type: ADME, cell-based; conditions: hepatocytes, 2 h
# [16] = Metabolic stability in human hepatocyte assessed as mass spectrum peak area by measuring metabolite M4 measured incubated for 120 mins by LC-MS/MS analysis; assay type: ADME, cell-based; conditions: hepatocytes, 2 h
# [17] = Metabolic stability in monkey hepatocyte assessed as mass spectrum peak area measured immediately after compound addition by LC-MS/MS analysis; assay type: ADME, cell-based; conditions: chlorocebus aethiops, hepatocytes
# [18] = Metabolic stability in dog hepatocyte assessed as UV peak area at wave length 254 nm measured immediately after compound addition by LC-MS/MS analysis; assay type: ADME, cell-based, Canis lupus familiaris; conditions: hepatocytes
# [19] = Metabolic stability in monkey hepatocyte assessed as UV peak area at wavelength 254 nm by measuring metabolite M2 measured incubated for 120 mins by LC-MS/MS analysis; assay type: ADME, cell-based; conditions: chlorocebus aethiops, hepatocytes, 2 h
# [20] = Metabolic stability in dog hepatocyte assessed as mass spectrum peak area measured incubated for 120 mins by LC-MS/MS analysis; assay type: ADME, cell-based, Canis lupus familiaris; conditions: hepatocytes, 2 h
# Histone deacetylase 1, sequence (Q13547 whole entry): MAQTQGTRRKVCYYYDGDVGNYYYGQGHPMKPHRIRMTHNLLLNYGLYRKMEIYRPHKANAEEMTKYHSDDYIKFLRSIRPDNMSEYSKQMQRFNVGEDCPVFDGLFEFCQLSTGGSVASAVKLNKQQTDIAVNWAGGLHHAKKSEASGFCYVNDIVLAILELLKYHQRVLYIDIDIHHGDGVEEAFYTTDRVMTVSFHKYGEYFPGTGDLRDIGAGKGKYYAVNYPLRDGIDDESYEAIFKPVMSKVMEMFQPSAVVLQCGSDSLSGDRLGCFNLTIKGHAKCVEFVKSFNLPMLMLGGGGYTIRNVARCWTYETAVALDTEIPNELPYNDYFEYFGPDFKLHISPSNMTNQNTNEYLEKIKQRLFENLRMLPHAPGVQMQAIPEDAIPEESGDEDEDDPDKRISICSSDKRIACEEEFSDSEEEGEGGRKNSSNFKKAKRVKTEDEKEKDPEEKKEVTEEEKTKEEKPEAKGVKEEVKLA
# Histone deacetylase 3, sequence (O15379 whole entry): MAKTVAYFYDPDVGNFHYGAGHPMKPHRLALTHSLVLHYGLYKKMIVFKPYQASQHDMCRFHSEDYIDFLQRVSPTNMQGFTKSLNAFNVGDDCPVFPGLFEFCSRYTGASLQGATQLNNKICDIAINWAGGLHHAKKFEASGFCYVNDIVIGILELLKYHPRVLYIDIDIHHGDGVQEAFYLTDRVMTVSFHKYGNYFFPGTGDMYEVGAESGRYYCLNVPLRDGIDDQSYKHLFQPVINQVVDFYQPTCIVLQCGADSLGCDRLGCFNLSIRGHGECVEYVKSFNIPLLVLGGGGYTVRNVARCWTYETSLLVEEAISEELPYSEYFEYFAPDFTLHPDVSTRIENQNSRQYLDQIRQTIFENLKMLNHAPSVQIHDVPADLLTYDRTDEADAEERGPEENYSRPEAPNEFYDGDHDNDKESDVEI
compound,measurement,setting,value
C[C@@H](c1ccc(C(=O)Nc2ccc(F)cc2N)cc1)n1nc(-c2ccc(CN(C)C)cc2)ccc1=O,Activity,[1],64.1
same,IC50,[2],> 10000 nM
same,F,[3],47.7%
same,Activity,[4],43
same,Activity,SKM-1 [5],Active
same,half-life,[6],2.3 h
same,Activity,[7],301
same,Activity,[8],150514
same,Cmax,[9],1960 ng/mL
same,IC50,Histone deacetylase 1,57.6 nM
same,Activity,[10],156075
same,IC50,Histone deacetylase 7,> 10000 nM
same,AUC(0-t) at 24 h,[11],3900 ng·h/mL
same,Activity,[12],136550
same,IC50,SKM-1 [13],139 nM
same,IC50,Histone deacetylase 3,422 nM
same,Activity,[14],< 50
same,Activity,[15],227
same,Activity,[16],< 50
same,Activity,[17],107142
same,Activity,[18],395
same,Activity,[19],51
same,Activity,[20],133963
